Here are results for two compounds from patent US10744109B2, “Sustained release suspension containing dezocine analogue ester and preparation method therefor” (SHANDONG DANHONG PHARMACEUTICAL CO., LTD., priority 2017, dated 2020).

A short description of data set [1]: Study of pharmacokinetics, intramuscular injection in male rats. The class given is in vivo. The settings on record: whole blood, im, rat; for AUC: read-out: AUC0=last. The protocol:
Study of Pharmacokinetics
3 Male rats for each group, the compound as shown in formula (I) was administered by intramuscular injection. Whole blood samples were collected at 0.25, 0.50, 1.0, 2.0, 4.0, 8.0, 12.0, 24.0 and 48.0 hour(s) after administration of the aqueous suspension group. Whole blood samples were collected at 0.25, 0.50, 2.0, 4.0, 8.0, 10.0, 24.0, 48.0, 72.0, 96.0, 120.0 and 144.0 hour(s) after administration of the oil suspension group. After precipitating the protein with acetonitrile/methanol, the supernatant was collected for sampling and the blood concentration of the compound was determined by LC-MS/MS. The non-compartment model linear logarithmic trapezoid method was used to calculate the pharmacokinetic parameters of the compounds as shown in formula (I) and formula (II) respectively by using WinNonlin™ Version 6.3 (Pharsight, Mountain View, Calif.) pharmacokinetic software.

For data set [2] the following is noted: cited from earlier work.
For data set [3] the following is noted: releases formula (II) after hydrolysis in vivo; cited from earlier work.
The conditions of data set [4]: in vivo, prepared as an aqueous solution; cited from earlier work.
[5] abbreviates: intramuscular injection of oil suspension of formula (I), 51.4 μM/Kg.
Where [6] appears, read: intramuscular injection of oil suspension of formula (I), 51.4 μM/Kg, 44.50 mg/mL, 0.25% Tween 80, medium chain triglyceride.
Where [7] appears, read: intramuscular injection of aqueous suspension of formula (I), 17.5 μM/Kg.

Where two headings read alike, the source gives them in different places.

For orientation: Tmax means the time from dosing to the highest level. A word on the Cmax: it is the maximum level reached in the sampled fluid or tissue. In general, half-life refers to how long it takes for the measured level to halve. Consider `C[C@@]12CCCCC[C@@H](Cc3c(F)cc(OC(=O)CCCCCCCCC(=O)Oc4cc(F)c5c(c4)[C@@]4(C)CCCCC[C@@H](C5)[C@@H]4N)cc31)[C@@H]2N` [formula (I)], for which, in data set [1] (setting [5]), the Tmax worked out at 0.25 h and the AUC came out at 0.11 µM·h. The compound further returned a Cmax in data set [1] (setting [6]) of 5.05 nM. In addition, the “solubility in oil solution” value in data set [2] (oil solution) is recorded as “hardly soluble or insoluble”. Further, the solubility in water result in data set [2] (water) is recorded as “slightly soluble”. Moreover, the stability in plasma entry in data set [3] is on record as “unstable”. Moreover, in data set [4], the clearance rate entry is listed as “too fast” and the half-life result is listed as “short”.

Usually AUC(0-inf) stands for the area under the concentration-time curve extrapolated to infinity. Read a high AUC(0-inf) as more exposure. Regarding `C[C@@]12CCCCC[C@@H](Cc3c(F)cc(O)cc31)[C@@H]2N` [formula (II)], in data set [1] (setting [7]), the AUC(0-inf) amounted to 5.81 µM·h, the Tmax was 4 h, the half-life was 7.52 h and the AUC amounted to 5.71 µM·h. In data set [1] (intramuscular injection of aqueous suspension of formula (I), 17.5 μM/Kg, 25 μm/mL, 1% Tween 20, 7.5% PEG 1000, 0.75% citric acid monohydrate), this compound registered a Cmax of 438 nM. For the same compound, in data set [1] (setting [5]), the AUC(0-inf) turned out to be 10.4 µM·h, the Tmax is 2 h, the half-life is 24.1 h and the AUC is 10.1 µM·h. Also, in data set [1] (setting [6]), the Cmax was determined as 378 nM.
